The test system of the test is M. tuberculosis H37Rv growth inhibition. The test is described as follows: M. tuberculosis H37Rv growth inhibitors, H37Rv strain (AID 1626). Conditions: for IC90: measured here: IC90 against H37Rv; for CC50: measured here: Vero cell cytotoxicity.

Among the data in PubChem BioAssay AID1626 (SRMLSC, 2009) are IC50, IC90 and CC50 values, retold here.

Each structure is given as a SMILES string.

Usually IC50 stands for the concentration needed to halve the response being measured. As a reminder, the IC90 is the concentration at which the effect reaches the 90% level. The CC50 is the concentration giving 50% cytotoxicity. Read a low CC50 as harm at low concentration. On to `CCOC(=O)c1ccc(NC(=O)COc2ccccc2CNCCc2ccccc2)cc1`, for which the IC50 is 4.77 µM, the concentration for an effect of 90% (IC90) worked out at 6.88 µM and the CC50 was 25.2 µM.

In the case of `Clc1ccc(CNc2nc(CN3CCOCC3)nc3scc(-c4ccccc4)c23)cc1`, the half-inhibitory concentration (IC50) is 22 µM, the IC90 stood at 25 µM and the cytotoxic concentration (CC50) is over 40 µM.

For `COC(=O)CSc1nc2c(c(-c3ccc(C)o3)c1C#N)CCCC2`, the half-maximal inhibitory concentration (IC50) is 2.66 µM and the concentration for an effect of 90% (IC90) amounted to 3.47 µM.

For `Cc1ccc(NC(=O)C2CCCCC2C(=O)O)cc1Cl` (configuration not stated), the concentration for an effect of 90% (IC90) was over 100 µM.

`CCOc1ccc(NCc2nnc(SCc3ccc(Cl)cc3)n2-c2ccccc2)cc1` registered a cytotoxic concentration (CC50) of over 40 µM.

Take `COc1cccc(-c2nc(-c3ccccc3)nc(N3CCN(C)CC3)c2C#N)c1`: the IC50 was 8.8 µM, the IC90 stood at 12.4 µM and the 50% cytotoxic concentration (CC50) is 26.7 µM.

As to `Cc1ccc(C(=O)N/C(=C\c2ccc(-c3ccc(Br)cc3)o2)C(=O)NCCCN(C)C)cc1`, the IC50 was 15.5 µM, the IC90 is 18.2 µM and the CC50 was 6.45 µM.

`Clc1ccc(Nc2ncn[nH]2)c(Cl)c1`: the IC50 was 6.68 µM, the 90% effect concentration (IC90) was over 100 µM and the 50% cytotoxic concentration (CC50) was over 40 µM.

The compound `c1ccc(-c2cc(-c3ccncc3)nc3ccc4ccccc4c23)cc1` displayed a half-maximal cytotoxic concentration (CC50) of over 40 µM.

For `COc1ccc(N=C/C=C2/C=C(c3ccccc3)OC(C)(C)O2)cc1`, the half-maximal inhibitory concentration (IC50) is 63.4 µM and the IC90 is over 100 µM.

Take `C=CCn1c(SCc2ccc(C(=O)Nc3nccs3)cc2)nnc1-c1ccc(C)c(Cl)c1`: the IC50 is 6.82 µM, the IC90 was 17.6 µM and the CC50 turned out to be 32.9 µM.

Regarding `O=C(c1cc2c(F)cccc2s1)N1CCCC1`, the IC50 is 7.87 µM and the concentration for an effect of 90% (IC90) is over 100 µM.

Consider `CSc1ccccc1NC(=O)c1cc(C2CC2)on1`, for which the IC50 was 23.6 µM and the concentration for an effect of 90% (IC90) amounted to 26.7 µM.

Consider `COc1ccc2ncc(OC(C)=O)cc2c1`, for which the IC90 was over 100 µM.

As for `CCn1c(NC(=O)c2cccs2)nc2ccccc21`, the IC50 was 5.32 µM and the IC90 was over 100 µM.

With `CCOC(=O)c1ccc(N2C(=O)c3n[nH]c(-c4ccco4)c3C2c2ccc([N+](=O)[O-])cc2)cc1` (configuration not stated), the IC50 was 9.07 µM, the IC90 worked out at 17 µM and the 50% cytotoxic concentration (CC50) was found to be 28 µM.

For the compound `CNC(=O)c1csc(-c2ccc(Cl)cc2)n1`, the IC50 is 38.6 µM and the IC90 was over 100 µM.

For the compound `CCOc1ccc2nc(NC(=O)CSc3nc(SC)ns3)sc2c1`, the IC50 was 2.95 µM, the IC90 is over 100 µM and the cytotoxic concentration (CC50) is over 40 µM.

For the compound `COCCCN=C1NN=C(c2cc(C)n(-c3ccccc3F)c2C)CS1`, the concentration for half-maximal inhibition (IC50) is 5.21 µM, the IC90 is 7.08 µM and the cytotoxic concentration (CC50) was 21.7 µM.

Compound `O=C(Nc1nnc(-c2ccc3c(c2)OCCO3)o1)C1CCCCC1` came in with a concentration for an effect of 90% (IC90) of over 100 µM.

As for `Cc1ccc(C)c(N=Nc2ccc(O)c3ncccc23)c1`, the IC50 is 68.5 µM, the IC90 is over 100 µM and the CC50 turned out to be 1.85 µM.

For `O=C(N[C@H](CO)[C@H](O)c1ccc([N+](=O)[O-])cc1)C(Cl)Cl`, the IC50 is 4.82 µM, the 90% effect concentration (IC90) was 7.7 µM and the CC50 is over 40 µM.

Turning to `Cc1cccc(Nc2nnc(SCC(=O)Nc3cccnc3Cl)s2)c1`, the IC50 was 2.34 µM and the IC90 was determined as 8.03 µM.

Consider `COC(=O)CSc1nnc(-c2sc3ccccc3c2Cl)o1`, for which the IC50 is 8.67 µM and the concentration for an effect of 90% (IC90) turned out to be 36.2 µM.

`Cc1nc(N2CCOCC2)c2c(C)c(C(=O)Nc3ccc(C(F)(F)F)cc3)sc2n1`: the CC50 was over 40 µM.

Consider `CCCOC(=O)c1ccc(NC(=O)C2C3C=CC(O3)C2C(=O)O)cc1` (configuration not stated), for which the IC50 is 35.2 µM and the concentration for an effect of 90% (IC90) is over 100 µM.

`CCC(C)c1ccccc1NC(=O)CN1CCN(C/C=C/c2ccccc2)CC1` (configuration not stated): the 50% inhibitory concentration (IC50) is 21.9 µM and the 90% effect concentration (IC90) was 35.1 µM.

As for `CCOC(=O)c1c(C)n(-c2ccc(C)cc2)c2ccc(OCC(O)CNCCCO)cc12` (configuration not stated), the half-maximal inhibitory concentration (IC50) is 20.3 µM, the IC90 was 37.1 µM and the 50% cytotoxic concentration (CC50) is 13 µM.

On to `CCCOc1cccc(-c2nn(-c3ccccc3)cc2/C=C(\C#N)C(=O)NCCCn2ccnc2)c1`, for which the IC50 is 10.9 µM, the IC90 is 11.9 µM and the CC50 was over 40 µM.

`CCN(CC)CCC(c1ccc2c(c1)OCO2)c1c(OC)cc(OC)c2c(-c3ccccc3)cc(=O)oc12` (configuration not stated): the half-inhibitory concentration (IC50) is 13.4 µM, the concentration for an effect of 90% (IC90) amounted to 21.3 µM and the half-maximal cytotoxic concentration (CC50) was found to be 16.5 µM.

For `COc1ccc(Br)cc1C(=O)Nc1ccccc1N1CCN(C(=O)c2ccccc2)CC1`, the concentration for half-maximal inhibition (IC50) is 16.7 µM, the IC90 was over 100 µM and the 50% cytotoxic concentration (CC50) was over 40 µM.

On to `c1ccc(OCc2nn3c(-c4n[nH]c5c4CCC5)nnc3s2)cc1`, for which the IC50 was 1.23 µM and the concentration for an effect of 90% (IC90) worked out at 6.8 µM.

Consider `O=C(NC1CCCCC1)C(c1ccc2ncccc2c1)N(Cc1ccccc1)C(=O)c1ccc2c(c1)OCCO2` (configuration not stated), for which the concentration for half-maximal inhibition (IC50) is 19 µM and the IC90 was 28.2 µM.

Consider `Cc1[nH]n(-c2ccc(Br)cc2)c(=O)c1C=Nc1ccc(S(=O)(=O)Nc2nccs2)cc1`, for which the IC50 was 10.9 µM, the 90% effect concentration (IC90) was over 100 µM and the CC50 is over 40 µM.

As for `Cc1ccc(-n2cc(C(=O)c3ccc(N4CCN(C)CC4)cc3)nn2)cc1Cl`, the IC50 was under 0.391 µM, the 90% effect concentration (IC90) turned out to be 4.59 µM and the CC50 came out at 12 µM.

In the case of `CCOC(=O)Nc1ccc(C(=O)Oc2ccccc2)c(O)c1`, the 50% inhibitory concentration (IC50) is under 0.195 µM, the concentration for an effect of 90% (IC90) is over 100 µM and the CC50 is over 40 µM.

`CC(C)Cc1c(O)nc(SCC(=O)Nc2ccc3c(c2)CCC3)[nH]c1=O` gave a concentration for an effect of 90% (IC90) of over 100 µM.

As to `O=C(Nc1nnc(-c2ccccc2)o1)c1nc2ccccc2s1`, the IC50 is 6.13 µM, the IC90 was found to be 13.6 µM and the cytotoxic concentration (CC50) was over 40 µM.

Regarding `Cc1ccc2c(c1)c1c(n2CC(O)CNC2CCCCC2)CCCC1` (configuration not stated), the IC50 was 6.83 µM, the IC90 was found to be 10.2 µM and the 50% cytotoxic concentration (CC50) worked out at 15.1 µM.

Regarding `Nc1cc(=O)[nH]c(SCC(=O)Nc2ccccc2-c2ccccc2)n1`, the IC90 was over 100 µM and the cytotoxic concentration (CC50) is over 40 µM.

`COc1ccc(CCNC(=O)c2c(N)n(CCN3CCOCC3)c3nc4ccccc4nc23)cc1`: the IC50 was 11.3 µM, the IC90 amounted to 19.1 µM and the CC50 is over 40 µM.

On to `N#CC1=C(S)N(c2ccccc2)C(c2ccc(-c3ccc(Cl)c(Cl)c3)o2)NC1=O` (configuration not stated), for which the IC50 was 41 µM and the concentration for an effect of 90% (IC90) is over 100 µM.

For the compound `O=C1N=C2N(CCN3CCCCC3)c3ccccc3N2/C1=C\c1ccc([N+](=O)[O-])o1`, the half-maximal inhibitory concentration (IC50) was 1.56 µM, the IC90 came to 1.6 µM and the CC50 was found to be 4.9 µM.

Regarding `O=C(COC(=O)c1c2c(nc3ccccc13)/C(=C/c1cccc([N+](=O)[O-])c1)CCC2)NC1CCS(=O)(=O)C1` (configuration not stated), the IC50 was 6.99 µM, the IC90 is over 100 µM and the 50% cytotoxic concentration (CC50) amounted to 34 µM.

For the compound `Cc1ccc(C)c(-c2csc(NC(=O)c3cnccn3)n2)c1`, the IC50 was 2.6 µM, the IC90 is over 100 µM and the CC50 was over 40 µM.

For `CC(C)(C)C(=O)COC(=O)c1cc2ccccc2cc1O`, the concentration for half-maximal inhibition (IC50) was 2.73 µM and the concentration for an effect of 90% (IC90) came to 16.5 µM.

Consider `CC(C)Cc1cc(C(=O)Nc2c(F)cc(F)cc2Br)no1`, for which the 50% inhibitory concentration (IC50) is 6.59 µM and the IC90 was 10.5 µM.

Consider `Cc1ccc(C(=O)/C=C\Nc2ccc(C)c(C)c2)cc1`, for which the concentration for an effect of 90% (IC90) is over 100 µM.

Turning to `CC(=O)C1=C(C)NC(SCC(=O)c2ccc(Cl)c(Cl)c2)=C(C#N)C1c1ccco1` (configuration not stated), the concentration for half-maximal inhibition (IC50) was 5.85 µM, the IC90 is 6.67 µM and the CC50 is over 40 µM.

On to `CCOC(=O)c1cnc(-n2nc(C)cc2C)nc1NCc1ccc2c(c1)OCO2`, for which the half-inhibitory concentration (IC50) was 4.62 µM, the IC90 was over 100 µM and the CC50 is over 40 µM.

`OCC#CCSc1nnc(-c2ccc(Br)cc2)o1`: the IC50 is 0.543 µM and the IC90 came out at 17.9 µM.

Regarding `Cc1csc(NC(=O)c2cc([N+](=O)[O-])cc([N+](=O)[O-])c2)n1`, the IC50 is 11.1 µM, the IC90 is 15.9 µM and the CC50 was over 40 µM.

Take `CCOC(=O)c1ccc(NC(=O)CCOc2ccc(OC)cc2)cc1`: the IC50 is 9.49 µM and the IC90 is over 100 µM.

`CS(=O)(=O)Nc1cccc2cccnc12`: the IC50 was 11.7 µM, the IC90 worked out at 12.9 µM and the cytotoxic concentration (CC50) is over 40 µM.

Take `COc1ccc(NC(=O)COC(=O)CCCOc2ccc(Cl)cc2Cl)cc1Cl`: the IC50 was 80.6 µM and the IC90 was over 100 µM.

For `CCN(CCCCN1C(=O)c2ccccc2C1=O)c1ccc2c(c1)C(=O)N(C)C2=O`, the half-inhibitory concentration (IC50) is 12 µM and the IC90 is over 100 µM.

As for `COc1cccc(CNc2cnc3ccccc3c2)c1O`, the IC50 is 28.6 µM and the concentration for an effect of 90% (IC90) was over 100 µM.

`CCOC(=O)C(/C=C(\C#N)C(=O)OCC)=C(/N)N1CCN(c2ccc(Cl)cc2)CC1`: the half-inhibitory concentration (IC50) was 11.7 µM and the IC90 was 13 µM.

Take `Cc1ccc(NCCC(=O)c2cccs2)cc1`: the IC50 was 24.8 µM and the IC90 turned out to be 32.7 µM.

Take `Cc1cc(=O)oc2cc(OC(=O)c3ccco3)ccc12`: the IC50 was 61.6 µM and the IC90 was over 100 µM.

As for `COc1cccc(CNc2ccccc2O)c1OCc1ccccc1F`, the IC90 is over 100 µM and the CC50 is over 40 µM.

Regarding `COc1ccc(-c2ccc([C@H]3[C@@H]4C=CCC[C@@]4(C)C(=O)N3Cc3ccccc3)c(F)c2)cc1OC`, the IC50 is 13 µM, the IC90 was over 100 µM and the CC50 amounted to 39.2 µM.

As to `COc1ccc(C(C(=O)NC2CCCCC2)N(C(=O)c2sc(C)nc2C)c2ccc(C(C)=O)cc2)cc1` (configuration not stated), the IC50 is 65.5 µM and the IC90 was over 100 µM.

`CCCCC(=O)Nc1ccc2c(c1)oc1ccccc12` had a concentration for an effect of 90% (IC90) of over 100 µM.

Consider `COc1cc(NC(=O)c2c(F)c(F)c(F)c(F)c2F)c(OC)cc1Cl`, for which the IC50 is 0.738 µM, the IC90 was over 100 µM and the CC50 is over 40 µM.

`CCOC(=O)c1ccc(NC(=O)Nc2ncccc2C)cc1` yielded a cytotoxic concentration (CC50) of over 40 µM.
